In patent US20260049104A1, “PEPTIDES WITH ANTIMICROBIAL PROPERTIES” (priority 2022, published 2026):
≈ marks a conversion by molar mass, not a printed value. Where two headings read alike, the source gives them in different places.

Experiments:
E. coli M6 [1] = test system: E. coli M6
Procedure: Female C57BL/6NTac mice aged 6-8 weeks were acquired from InVivos Pte Ltd (Singapore, Singapore). Solutions for injections were prepared fresh in pharmaceutical grade saline and filter-sterilized. Murine peritonitis model was established according to literature. Briefly, healthy mice were rendered neutropenic by administering i.p. injection (0.5 mL) of cyclophosphamide on day −4 (150 mg/kg) and day −1 (100 mg/kg). On day 0, mice were infected with E. coli M6 (10^9 CFU/mL) through i.p. injection (0.1 mL). […] At 2 h post-treatment, mice were humanely euthanized by carbon dioxide asphyxiation and cervical dislocation. Sterile PBS (3 mL) was injected into the peritoneal cavity, followed by abdominal massage and collection of peritoneal fluid (1-2 mL). Blood (0.3-0.5 mL) was collected through cardiac puncture. Liver, spleen, and kidney were surgically removed and stored in 0.1% Triton X-100 (in PBS). Tissue homogenization was performed using gentleMACS dissociator (Miltenyi Biotec, Germany) by following a published protocol. Cell aggregates were removed using a 30 μm mesh MACS SmartStrainer (Miltenyi Biotec). Blood, peritoneal fluid, and tissue homogenates were plated on LB agar and incubated overnight for colony counting.

E. coli M6 [2] = test system: E. coli M6; remark: listed apart in the source
Procedure: Resistance development of E. coli M6 against xenorceptide A2 was assessed by serial passaging of the bacteria in broth containing subinhibitory concentrations of the peptide. In brief, bacteria culture at mid-log phase was diluted to 10^5-10^6 CFU/mL in MHB containing 0.25×, 0.5×, 1×, 2×, and 4×MIC of the peptide. […] A new set of peptide concentration range was added to the cultures based on the latest MIC. This process was repeated over 14 days for three independent starting cultures.

Salmonella entereditis = Salmonella entereditis ATCC 13076
Procedure: (§1) MIC screening of the peptides against a panel of ATCC and clinical strains was performed using broth microdilution method.^1 Briefly, peptides stock solutions in DMSO (0.1/G TFA) were diluted into Mueller Hinton Broth (MHB), followed by two-fold serial dilution in a 96-well plate. Bacteria culture in mid-log phase was diluted into MHB to yield […] colony-forming units (CFU)/mL. Equal volume of the starting inoculum was added to the peptide samples, then incubated for 18-20 h (37° C., 120 rpm). OD600 of the samples was then measured using Tecan Infinite M200 (TECAN, Männedorf, Switzerland). MIC is defined as the lowest peptide concentration to achieve more than 90% reduction in OD600 relative to the drug-free control. The experiments were repeated three times. Colistin-resistant clinical isolates are a kind gift from Dr. Jeanette Koh (National University Hospital, Singapore). Multidrug-resistant clinical isolates are a kind gift from Dr. Lakshminarayanan Rajamani (Singapore Eye Research Institute, Singapore).

Enterobacteriaceae = test system: Enterobacteriaceae
Procedure: as §1

Shigella flexneri = Shigella flexneri M90T
Procedure: as §1

Bacillus cereus = Bacillus cereus ATCC 11778
Procedure: as §1

Salmonella typhimurium = Salmonella typhimurium ATCC 14028
Procedure: as §1

Bacillus subtilis = type: cell-based; settings: Bacillus subtilis ATCC 6633
Excerpt: (§2) The experiments were repeated three times.

Pseudomonas aeruginosa = type: cell-based; settings: for MIC value: Table 15, unit inferred
Excerpt: as §2

Morganella morganii = type: cell-based
Excerpt: as §2

E. coli M6 [3] = settings: E. coli M6, over 24 h
Procedure: Peptides stock solutions were diluted into MHB to desired concentrations. Bacteria culture in mid-log phase was diluted into MHB to yield 10^6 CFU/mL. The mixture was incubated at 37° C. with shaking. At each time point, 10 μL of the sample was drawn out and subjected to ten-fold serial dilution. 20 μL of relevant dilutions was dropped onto MHA plate using the drop plate method. The plate was incubated for 18-20 h at 37° C. Colony number was counted, and used for calculating the CFU/mL according to the equation:
CFU/mL=Colony count×50×dilution factor

Klebsiella pneumoniae = settings: for MIC value: Table 15, unit inferred
Procedure: as §1
(§3) Kanamycin and ampicillin were used as antibacterial control agents. […] Then, sequential 2-fold serial dilutions of the mix were diluted in 50 μL MH broth and 50 μL cell cultures were added to wells. […] All assays were carried out in triplicate.

Acinetobacter baumannii = settings: for MIC value: Table 15, unit inferred
Procedure: as §1, §3

Staphylococcus aureus = test system: Staphylococcus aureus
Procedure: as §1, §3

Enterobacter cloacae = settings: for MIC value: Table 15, unit inferred
Procedure: as §1, §3

Escherichia coli = settings: for MIC value: Table 15, unit inferred
Procedure: as §1, §3

[4] = test system: Gram-positive and Gram-negative bacteria; settings: E. coli, E. cloacae, A. baumannii and K. pneumoniae
Procedure: as §1, §3

Enterococcus faecalis = type: cell-based; settings: strain not given, Table 14, preliminary screening
Procedure: MIC values for compounds (1-11) were assessed using 96-well plate format with Mueller Hinton (MH) broth, using the two-fold dilution method, previously reported in standard methods provided by Clinical and Laboratory Standards S8 Institute (CLSI). Kanamycin and ampicillin were used as antibacterial control agents. According to the reference, the compounds (1-11) were first dissolved in DMSO+0.1% TFA at a concentration of 3.2 mg/mL and 4 μL was serially diluted in 96 μL of MH broth. Then, sequential 2-fold serial dilutions of the mix were diluted in 50 μL MH broth and 50 μL cell cultures were added to wells. […] All assays were carried out in triplicate.

[5] = 50 mg/kg single i.p. dose, 5 h post-treatment, neutropenic mice infected with E. coli M6
[6] = E. coli M6, sub-inhibitory concentrations, over two weeks
[7] = Pseudomonas aeruginosa DR4877/07
[8] = Pseudomonas aeruginosa DR5790/07
[9] = Klebsiella pneumoniae ATCC 700603

In the case of `CC(C)[C@@H]1NC(=O)[C@@H](N)Cc2c[nH]c3cc(ccc23)[C@H](C(N)=O)[C@@H](C(=O)N[C@@H](C)C(=O)N[C@H]2Cc3cccc(c3)[C@H](CCNC(=N)N)[C@@H](C(=O)N[C@H]3Cc4c[nH]c5cc(ccc45)[C@H](CCCN)[C@@H](C(=O)N[C@@H](CO)C(=O)N[C@@H](Cc4ccccc4)C(=O)O)NC(=O)[C@H](CO)NC3=O)NC(=O)[C@H](C)NC2=O)NC1=O` [xenorceptide A2], the “decrease in colony count relative to saline control, blood” value (E. coli M6 [1]; [5]) is reported as 7 log, the “decrease in colony count relative to saline control, liver” value (E. coli M6 [1]; [5]) is reported as 4 log and the “decrease in colony count relative to saline control, peritoneal fluid” value (E. coli M6 [1]; [5]) is reported as 6 log. For the same compound, the “reduction in bacteria burden, kidney” value (E. coli M6 [1]; [5]) was 2 log, the “reduction in bacteria burden, spleen” value (E. coli M6 [1]; [5]) was 2 log and the “in vivo efficacy compared with colistin” value (E. coli M6 [1]; both at 5 mg/kg, single i.p. dose) was “comparable efficacy to colistin”. For the same compound, the “level at which resistance development halted” value (E. coli M6 [2]; E. coli) was 4 ×MIC, the “period over which resistance development occurred” value (E. coli M6 [2]; E. coli) was 6 to 8 days and the “MIC of strains obtained by serial passage” value (E. coli M6 [2]; [6]) was 32 µg/mL. The “resistance of strains obtained by serial passage” value (E. coli M6 [2]; [6]) was ~4 fold, the MIC (Salmonella entereditis) was 8 µg/mL (≈ 5.36 µM) and the “potency compared with dynobactin and darobactin” value (Enterobacteriaceae; against Enterobactericeae) was “more potent than dynobactin and has comparable potency to darobactin”. For the same compound, the MIC values (Enterobacteriaceae; several carbapenamase-resistant Enterobacteriaceae (CRE)) was 4 to 8 µg/mL, the MIC (Shigella flexneri) was 2 µg/mL (≈ 1.34 µM) and the MIC (Bacillus cereus) was >64 µg/mL. The MIC (Salmonella typhimurium) was 8 µg/mL (≈ 5.36 µM), the MIC (Bacillus subtilis) was >64 µg/mL and the MIC (Pseudomonas aeruginosa; Pseudomonas aeruginosa ATCC 9027) was 64 µg/mL (≈ 42.9 µM). For the same compound, the MIC (Pseudomonas aeruginosa; Pseudomonas aeruginosa DM4150R) was 64 µg/mL (≈ 42.9 µM), the MIC (Pseudomonas aeruginosa; Pseudomonas aeruginosa DM23376) was >64 µg/mL and the MIC (Pseudomonas aeruginosa; [7]) was 64 µg/mL (≈ 42.9 µM). The MIC (Pseudomonas aeruginosa; [8]) was 64 µg/mL (≈ 42.9 µM), the MIC (Morganella morganii; Morganella morganii ATCC 25830) was 32 µg/mL (≈ 21.4 µM) and the MIC (Morganella morganii; Morganella morganii CRE1001) was 32 µg/mL (≈ 21.4 µM). The “cytotoxicity: concentration up to which no cytotoxicity was shown” value (HepG2 human cells) was > 256 µg/mL, the “bactericidal effect: reduction in bacteria count” value (E. coli M6 [3]; at 8×MIC) was 3 log and the “bactericidal effect: reduction in bacteria count” value (E. coli M6 [3]; at both 4× and 8×MIC) was 3 log. For the same compound, the MIC (Klebsiella pneumoniae; [9]) was 8 µg/mL (≈ 5.36 µM), the MIC (Klebsiella pneumoniae; Klebsiella pneumoniae CRE 1007) was 8 µg/mL (≈ 5.36 µM) and the MIC (Klebsiella pneumoniae; Klebsiella pneumoniae CRE1008) was 8 µg/mL (≈ 5.36 µM). For the same compound, the MIC (Klebsiella pneumoniae; Klebsiella pneumoniae CRE1011) was 8 µg/mL (≈ 5.36 µM), the MIC (Klebsiella pneumoniae; Klebsiella pneumoniae CRE1012) was 8 µg/mL (≈ 5.36 µM) and the MIC (Acinetobacter baumannii; Acinetobacter baumannii ACBA1001) was 32 µg/mL (≈ 21.4 µM). For the same compound, the MIC (Acinetobacter baumannii; Acinetobacter baumannii ACBA1002) was 32 µg/mL (≈ 21.4 µM), the MIC (Acinetobacter baumannii; Acinetobacter baumannii ACBA1003) was 32 µg/mL (≈ 21.4 µM) and the MIC (Acinetobacter baumannii; Acinetobacter baumannii ACBA1004) was 64 µg/mL (≈ 42.9 µM). The MIC (Acinetobacter baumannii; Acinetobacter baumannii ATCC 19606) was >64 µg/mL, the MIC (Staphylococcus aureus; Staphylococcus aureus ATCC 29737) was >64 µg/mL and the MIC (Staphylococcus aureus; Staphylococcus aureus ATCC 43300) was >64 µg/mL. For the same compound, the MIC (Enterobacter cloacae; Enterobacter cloacae CRE1010) was 4 µg/mL (≈ 2.68 µM), the MIC (Enterobacter cloacae; Enterobacter cloacae CRE1014) was 16 µg/mL (≈ 10.7 µM) and the MIC (Enterobacter cloacae; Enterobacter cloacae CRE1015) was 32 µg/mL (≈ 21.4 µM). The MIC (Enterobacter cloacae; Enterobacter cloacae CRE1016) was 16 µg/mL (≈ 10.7 µM), the MIC (Enterobacter cloacae; Enterobacter cloacae CRE1017) was 32 µg/mL (≈ 21.4 µM) and the MIC (Escherichia coli; Escherichia coli ATCC 25922) was 4 µg/mL (≈ 2.68 µM). It also gave an MIC (Escherichia coli; Escherichia coli CRE1006, carbapenem-resistant clinical isolate) of 4 µg/mL (≈ 2.68 µM), an MIC (Escherichia coli; Escherichia coli M6, carbapenem- and colistin-resistant clinical isolate) of 8 µg/mL (≈ 5.36 µM) and an MIC (Escherichia coli; Escherichia coli M10, carbapenem- and colistin-resistant clinical isolate) of 4 µg/mL (≈ 2.68 µM). For the same compound, the MIC (Escherichia coli; Escherichia coli M11, carbapenem- and colistin-resistant clinical isolate) was 4 µg/mL (≈ 2.68 µM).

Compound `CC(C)[C@@H]1NC(=O)[C@@H](NC(=O)CNC(=O)[C@H](CCC(=O)O)NC(=O)CNC(=O)[C@@H](N)CCCNC(=N)N)Cc2c[nH]c3cc(ccc23)C(CCNC(=N)N)[C@@H](C(=O)N[C@@H](C)C(=O)N[C@@H](Cc2ccc(O)cc2)C(=O)N[C@H]2Cc3c[nH]c4cc(ccc34)C(CCCN)[C@@H](C(=O)N[C@@H](CCCNC(=N)N)C(=O)N[C@@H](Cc3ccccc3)C(=O)O)NC(=O)[C@H](C)NC2=O)NC1=O` (stereo partly shown) [Compound 24, xenorceptide D1] has an MIC value (Pseudomonas aeruginosa; Pseudomonas aeruginosa DM4150R) of 32 µg/mL (≈ 18 µM), an MIC value (Pseudomonas aeruginosa; Pseudomonas aeruginosa DM23376) of 16 µg/mL (≈ 9 µM) and an MIC value (Pseudomonas aeruginosa; [7]) of 16 µg/mL (≈ 9 µM). The MIC value (Pseudomonas aeruginosa; [8]) was 16 µg/mL (≈ 9 µM), the MIC value range [4] was 1 to 4 µg/mL and the MIC value (Klebsiella pneumoniae; ATCC 25922, printed under Klebsiella pneumoniae) was 1 µg/mL (≈ 0.562 µM). For the same compound, the MIC value (Klebsiella pneumoniae; CRE1006, Klebsiella pneumoniae) was 2 µg/mL (≈ 1.12 µM), the MIC (Klebsiella pneumoniae; Klebsiella pneumoniae ATC 700603, Table 14, preliminary screening) was 2 µg/mL (≈ 1.12 µM) and the MIC value (Klebsiella pneumoniae; [9]) was 2 µg/mL (≈ 1.12 µM). The MIC value (Klebsiella pneumoniae; Klebsiella pneumoniae CRE 1007) was 4 µg/mL (≈ 2.25 µM), the MIC value (Klebsiella pneumoniae; Klebsiella pneumoniae CRE1008) was 4 µg/mL (≈ 2.25 µM) and the MIC value (Klebsiella pneumoniae; Klebsiella pneumoniae CRE1011) was 2 µg/mL (≈ 1.12 µM). For the same compound, the MIC value (Klebsiella pneumoniae; Klebsiella pneumoniae CRE1012) was 4 µg/mL (≈ 2.25 µM), the MIC value (Acinetobacter baumannii; Acinetobacter baumanii ACβA1001) was 4 µg/mL (≈ 2.25 µM) and the MIC value (Acinetobacter baumannii; Acinetobacter baumanii ACβA1002) was 4 µg/mL (≈ 2.25 µM). The MIC value (Acinetobacter baumannii; Acinetobacter baumanii ACβA1003) was 4 µg/mL (≈ 2.25 µM), the MIC value (Acinetobacter baumannii; Acinetobacter baumanii ACβA1004) was 4 µg/mL (≈ 2.25 µM) and the MIC (Acinetobacter baumannii; Acinetobacter baumanii ATCC 19606, Table 14, preliminary screening) was 2 µg/mL (≈ 1.12 µM). The MIC value (Acinetobacter baumannii; Acinetobacter baumanii ATCC 19606) was 2 µg/mL (≈ 1.12 µM), the MIC (Staphylococcus aureus; Staphylococcus aureus ATCC 29737, Table 14, preliminary screening) was >64 µg/mL and the MIC value (Enterobacter cloacae; Enterobacter cloacae ATCC 13047) was 4 µg/mL (≈ 2.25 µM). It also gave an MIC value (Enterobacter cloacae; Enterobacter cloacae CRE1010) of 4 µg/mL (≈ 2.25 µM), an MIC value (Enterobacter cloacae; Enterobacter cloacae CRE1014) of 8 µg/mL (≈ 4.5 µM) and an MIC value (Enterobacter cloacae; Enterobacter cloacae CRE1015) of 8 µg/mL (≈ 4.5 µM). For the same compound, the MIC value (Enterobacter cloacae; Enterobacter cloacae CRE1016) was 8 µg/mL (≈ 4.5 µM), the MIC value (Enterobacter cloacae; Enterobacter cloacae CRE1017) was 8 µg/mL (≈ 4.5 µM) and the MIC (Enterobacter cloacae; Enterobacter cloacae, strain not given, Table 14, preliminary screening) was 4 µg/mL (≈ 2.25 µM). It also gave an MIC (Escherichia coli; Escherichia coli ATCC 25922, Table 14, preliminary screening) of 1 µg/mL (≈ 0.562 µM), an MIC value (Escherichia coli; Escherichia coli M2) of 4 µg/mL (≈ 2.25 µM) and an MIC value (Escherichia coli; Escherichia coli M6) of 2 µg/mL (≈ 1.12 µM). The MIC value (Escherichia coli; Escherichia coli M10) was 2 µg/mL (≈ 1.12 µM), the MIC value (Escherichia coli; Escherichia coli M11) was 2 µg/mL (≈ 1.12 µM) and the MIC (Enterococcus faecalis) was 64 µg/mL (≈ 36 µM).
